This note sets out measurements from patent publication US8975234B2, “Anti-bacterial infection, inflammation, and leukemia composition and use thereof” (priority 2011, dated 2015).

In one assay the test system is K-562 cells. Put plainly: Cell cycle analyses by flow cytometry. The class given is cell-based, human. The settings on record: 0-50 μM. As for the experimental part: K-562 cells were plated in 15 cm dish at a density of 5×10^5 cells/mL (15 mL) and incubated at 37° C. with 5% CO2 for 16˜18 hours. Cells were collected and centrifuged at 700 rpm for 3 minutes at room temperature, and resuspended in culture medium containing 0.04% fetal bovine serum and 8 mM L-glutamine. Then, cells were incubated at 37° C. with 5% CO2 for 16˜18 hours.
Collected above cells and plated in 3 cm dishes at an initial density of 5×10^5 cells/mL (3 mL). Cells were treated with Tellimagrandin II to final concentrations of 0, 10, 20, 30, 40 and 50 μM, and then incubated at 37° C. with 5% CO2 for 12 and 24 hours.
Cells were centrifuged at a speed of 700 rpm for 5 min at 4° C. and washed once with PBS. Cells were fixed by drop-wise addition of 70% ethanol into the cell suspension. After 16˜18 hours, the ethanol-suspended cells were centrifuged at a speed of […] for 5 minutes at 4° C. and the ethanol decanted thoroughly. Cells were resuspended in PBS containing RNase A (10 μg/mL) and 1% Triton X-100 and incubated at 37° C. in a 5% CO2 incubator for 30 minutes to 1 hour. For propidium iodide (PI) staining, cells were centrifuged at 3,500 rpm for 5 minutes at room temperature and resuspended in 600 μL PBS. 25 μL of PI (20 μg/mL) solution was added to the mixture and incubated at room temperature in the dark for 1 hour. […]
(Flow cytometry measures light scatter and fluorescence of single cells or particles in a stream.)

The test system of assay [1] is Staphylococcus aureus biofilm formation. Put plainly: Biofilm formation. The class given is cell-based. The settings on record: 40 μg/mL Tellimagrandin II. As for the experimental part:
Bacteria was grown overnight (16˜18 hours) on agar plate. Then, collected and re-suspended in 0.45% sterile PBS and diluted in sterile PBS to final optical density at 600 nm (OD600) of 0.1. Polystyrene 96-well microtitre plates were filled with 150 μL of culture medium and 20 μL of bacterial solution per well. The cultures were allowed to stand at 37° C. for 18 hours. After the incubation period, cultures were removed, and microtitre plate wells were gently washed three times with 300 μL of sterile PBS to remove loosely associated bacteria, then dried at 60° C. oven for 1 hour. Samples were stained by the addition of the 2% dye solution (150 μL) to each well above the initial inoculation level and incubated for 15 minutes. The plate was then washed in fresh water. The intensity of staining was measured after the addition of 95% alcohol (150 μL) to each dry well. The samples were incubated at room temperature for 30 min, after which the OD517 values were measured on a plate reader.
Optical density cut-off value (ODc)=average OD of negative control+3× standard deviation (SD) of negative control (The interpretation of biofilm production was done according to the criteria of Srdjan et al. (APMIS 115: 891-9, 2007). MRSA 17199 were used as control strain.

Assay [2] has as its system penicillin-binding protein 2a (PBP2a). As to the kind of experiment: Western blotting analysis of PBP2a expression. It counts as cell-based, Staphylococcus aureus. The settings on record: 40 μg/mL alone. How it is done:
Protein samples (15 μg) were mixed with 5× Sample buffer and boiled in 1× Sample buffer for 5 min and then cooled quickly that proteins be denatured to their constituent polypeptide chains. Equal amounts of protein (15 μg) were separated on 10% SDS-PAGE at 17 mA for 2 hours, and transferred to PVDF membrane using wet transfer procedure. The PVDF membrane was blocked for half hour at room temperature in t-BST buffer containing 5% (w/v) non-fat dry milk to prevent nonspecific binding then probed with primary antibodies (Rabbit-anti-penicillin binding protein, dilution 1:5000) in 5% non-fat dry milk for 16˜18 hours at 4° C. Anti-Groel was used as internal controls (dilution 1:80,000; purchased from Sigma). After washing with t-BST three times for 5 minutes each, the membrane was incubated for half hour at room temperature with horseradish peroxidase (HRP)-conjugated secondary antibodies in 5% (w/v) non-fat dry milk. The membrane was washed three times for 5 minutes each, followed by using an enhanced chemiluminescence system and exposed to film.
Background: Immunoblotting shows a protein as a band on a membrane.

Assay [3] concerns Heme oxygenase-1 (HO-1) in RAW264.7 cells. As to the kind of experiment: Western blot analysis of Heme oxygenase-1 (HO-1). It counts as cell-based, mouse. The settings on record: 25 or 50 μM with LPS, 24 hours. How it is done:
The murine macrophage RAW264.7 cells were plated in 6 cm cell dishes at a seeding density of 5×10^6 cells/mL and incubated overnight. After overnight incubation, cells were treated with different concentrations of Tellimagrandin II (10, 25 and 50 μM) and LPS and incubated for 24 hours. Cells were washed twice with PBS, scraped and lysed on ice in RIPA buffer, and proteins were obtained. Heme oxygenase-1 expression was analyzed by Western blotting of the whole cell lysates. […] In FIG. 12, the first bar represents the control group, the second bar represents the test group with LPS only and the third, the fourth and fifth bars represent the test groups with 10, 25 and 50 […] Tellimagrandin II (N=3, Mean±SD).

Structures are written as SMILES.

As for `O=C(OC1O[C@@H]2COC(=O)c3cc(O)c(O)c(O)c3-c3c(cc(O)c(O)c3O)C(=O)O[C@H]2[C@H](OC(=O)c2cc(O)c(O)c(O)c2)[C@H]1OC(=O)c1cc(O)c(O)c(O)c1)c1cc(O)c(O)c(O)c1` (stereo partly drawn) [Tellimagrandin II], the “percentage of the sub-G1 and G2/M-phase cells” value with K-562 cells is reported as “increased in Tellimagrandin II treatments dose-dependently”. Further, the “OD (average OD value of the strain − ODc)” value in assay [1] (ODc 0.167) came to 0.039. Moreover, in assay [1] (biofilm staining of strain), the “Average OD value” is recorded as 0.206. In addition, the “Absorbance 1” value in assay [1] (biofilm staining of strain, replicate 1) is 0.153. In addition, in assay [1] (biofilm staining of strain, replicate 2), the “Absorbance 2” value is listed as 0.259. For the same compound, the “Absorbance 3” value in assay [1] (biofilm staining of strain, replicate 3) is 0.167. For the same compound, the “Absorbance 4” value in assay [1] (biofilm staining of strain, replicate 4) was determined as 0.246. Moreover, the “expression of penicillin-binding protein 2a (PBP2a)” value in assay [2] is listed as “inhibit the expression”. Further, in assay [3], the “Heme oxygenase-1 expression” value is given as “significant increases”.
